Results: patent publication US11027027B2, “Pyridazinoindole compounds and methods for PET imaging” (Vanderbilt University, priority 2015, dated 2021)
Read-outs that look alike come from different tables or passages of the source.

Assays:
TSPO [1] = molecular target: T1, TSPO (Rattus norvegicus, UniProt P16257); design: frozen and thawed three times in lysis buffer; endogenous in cells; host or cells: C6 rat glioma cells; conditions: cited from earlier work
TSPO [2] = molecular target: T1, TSPO; assay: TSPO radiometric binding assay, kidney lysate, displacement of [3H]PK11195
Description: (§1) Affinities are expressed as Ki±S.E.M. (pM) in Table 1. All experiments were performed in triplicate.
(§2) Male Wistar rats were sacrificed and the heart and kidney collected and dissected. The tissues were homogenized in 20 volumes of ice-cold PBS buffer (pH 7.4) with a Brinkmann microhomogenizer (Kinematica AG, Luzern, SW). The homogenate was collected at a protein concentration of 5.0 mg/mL and stored at −80° C. C6 cells were collected and washed with PBS buffer three times, and then frozen and thawed three times in lysis buffer (5.0 mM HEPES, 0.21 M D-mannitol, 0.07 M sucrose, 2.0 mM benzamidine, 2.0 mM toluenesulfonyl fluoride, 4.0 mM MgCl2, pH 7.4) to produce C6 cell lysate (0.5 mg/mL). […] The reaction was terminated by rapid filtration through a Brandel harvester (Gaithersburg, Md., USA) and collection onto a filter presoaked with 0.3% polyethyleneimine. Filters were then punched out into scintillation vials and bound radioactivity measured on a Beckman LS 6000 Scintillation Counter (Brea, Calif., USA). […] All experiments were performed in triplicate.

TSPO [3] = molecular target: T1, TSPO; assay: TSPO radiometric binding assay, heart lysate, displacement of [3H]PK11195
Description: as §1, §2

TSPO [4] = molecular target: T1, TSPO; assay: TSPO radiometric binding assay, C6 glioma cell lysate, displacement of [3H]PK11195; design: frozen and thawed three times in lysis buffer; endogenous in cells; host or cells: C6 rat glioma cells
Description: as §1, §2

[5] = molecular target: central benzodiazepine receptor (CBR); assay: CBR binding assay, displacement of [3H]flunitrazepam in rat brain (cerebral cortex) lysate; conditions: rat brain lysate / cerebral cortex membranes; selectivity for TSPO over CBR; read-out: Ki versus [3H]flunitrazepam
Description: as §1
The homogenate was collected at a protein concentration of 5.0 mg/mL and stored at −80° C. […] All experiments were performed in triplicate.

TSPO [6] = molecular target: T1, TSPO; assay: Binding affinity to TSPO of fluorescent probes
From the text: Binding affinity to TSPO of fluorescent probes 23-29.

PBR = PBR (Homo sapiens, UniProt P30536); conditions: cited from earlier work
Chain of PBR (P30536 whole entry, species assumed): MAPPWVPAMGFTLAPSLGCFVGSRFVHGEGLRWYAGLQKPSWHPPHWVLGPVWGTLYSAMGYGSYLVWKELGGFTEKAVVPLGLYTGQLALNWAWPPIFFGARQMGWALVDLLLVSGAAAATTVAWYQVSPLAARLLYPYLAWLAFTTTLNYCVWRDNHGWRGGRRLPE

C6 glioma = assay: Dynamic microPET imaging of tracer uptake in C6 glioma-bearing rats; assay type: in vivo, rat
Description: (§3) Uptake Characteristics of [^18F]-14 in C6 Glioma. The in vivo performance of [^18F]-14 was evaluated in glioma-bearing (C6), male Wistar rats using microPET imaging, with a typical study shown in FIG. 1. MRI (T2-weighted) was used to localize tumors and for registration of anatomical features with PET (FIG. 1A).^11,12,18 Dynamic PET imaging with [^18F]-14 illustrated that the majority of tracer accumulation in the brain was localized to the tumor, with modest accumulation that exceeded plasma in contralateral, non-tumor brain (FIGS. 1B & 1C). The tumor-selective characteristics of [^18F]-14 afforded excellent imaging contrast between tumor and contralateral tissue. FIG. 1G illustrates time—activity curves (TACs) typical of representative studies for tumor (blue), normal brain (green), and plasma (red) over a 90-min dynamic acquisition.
All studies involving animals were conducted in compliance with federal and institutional guidelines. Two weeks before imaging, healthy male Wistar rats were stereotactically inculcated in the right hemisphere with 1.0×10^5 C6 glioma cells (American Type Tissue Collection). Prior to imaging, all rats were affixed with venous and arterial catheters.
PET/CT was performed within 24 hours of MRI in rats with confirmed tumors. Tumor-bearing rats were administered [^18F]-14 via jugular catheter while in a microPET Focus 220 scanner (Siemens, Munich, Del.). […]

[7] = Radio-TLC radiometabolite analysis of plasma; assay type: in vivo, rat; conditions: plasma samples, n=2, preliminary
Description: as §3
Arterial blood (500 μL) was collected at 2, 12, 30, and 60 minutes following injection of 1.5 mCi of [^18F]-14. After centrifugation, the plasma was extracted with acetonitrile/water (50 μL, 7/1, v/v). The mixture was then centrifuged and the supernatant used for TLC analysis in 10% dichloromethane in methanol. Radiochromatographic data were recorded and collected using a radioisotope detector (Bioscan, Washington, D.C., USA).

TSPO [8] = molecular target: T1, TSPO; assay: In vivo PET displacement study with non-radioactive 14 in C6-bearing rats; design: frozen and thawed three times in lysis buffer; endogenous in cells; host or cells: C6 rat glioma cells
Description: Specific Binding of [^18F]-14 in Rats. To evaluate the in vivo TSPO specificity of [^18F]-14, the present inventors performed displacement studies in C6-bearing rats using the non-radioactive analog (14). As shown in the TAC in FIG. 1H, during the dynamic PET study, a bolus (IV) infusion of nonradioactive 14 (10 mg/kg) was administered approximately 30 minutes after injection of [^18F]-14. […] During tumor displacement, the present inventors observed a minor influx of tracer into normal brain (green). The displaced [^18F]-14 then rapidly cleared the normal brain and entered the plasma, subsequently elevating plasma (red) radioactivity.
PET/CT was performed within 24 hours of MRI in rats with confirmed tumors. Tumor-bearing rats were administered [^18F]-14 via jugular catheter while in a microPET Focus 220 scanner (Siemens, Munich, Del.). Data were collected in list-mode format for 90 minutes, followed by a CT scan (microCAT II; Siemens) for attenuation correction.
The dynamic PET acquisition was divided into twelve 10-s frames for the first two minutes, three 60-second frames for the following three minutes, and seventeen 300-second frames for the duration of the scan. The raw data within each frame were then binned into three-dimensional sinograms, with a span of three and ring difference of 47. […]

[9] = molecular target: central benzodiazepine receptor (CBR); conditions: value used to calculate Ki; read-out: Kd for flunitrazepam; cited from earlier work
[10] = versus [3H]PK11195, C6 lysate, low-affinity component, read-out: C6 Glioma Ki, low-affinity binding (mixed affinity binding)
[11] = Ki ± S.E.M. versus [3H]PK11195, rat heart lysate, triplicate
[12] = Ki ± S.E.M. versus [3H]PK11195, C6 lysate, high-affinity value where binding is mixed, triplicate, read-out: C6 Glioma Ki

For `COc1ccc(OC)c(CN(C(=O)CF)c2ccccc2Oc2ccccc2)c1` [Compound 1, reference compound], the Ki (TSPO [1]; read-out: Ki for TSPO in C6 glioma (reported), literature values) is listed as 6.17 nM.

`CN(C)C(=O)Cc1nn(-c2ccccc2F)c(=O)c2c1c1ccc(Cl)cc1n2C` [Compound 9, 2-(7-Chloro-3-(2-fluorophenyl)-5-methyl-4-oxo-4,5-dihydro-3H-pyridazino[4,5-b]indol-1-yl)-N,N-dimethylacetamide] gave a Ki (TSPO [2]; read-out: Kidney Ki) of 0.00118 ± 4e-05 nM.

`CN(C)C(=O)Cc1nn(-c2cccc([N+](=O)[O-])c2)c(=O)c2c1c1ccc(Cl)cc1n2C` [Compound 11, 2-(7-Chloro-5-methyl-3-(3-nitrophenyl)-4-oxo-4,5-dihydro-3H-pyridazino[4,5-b]indol-1-yl)-N,N-dimethylacetamide] gave a Ki (TSPO [3]) of 0.00118 ± 9e-05 nM.

With `CN(C)C(=O)Cc1nn(-c2ccc(F)cc2)c(=O)c2c1c1ccc(Cl)cc1n2C` [Compound 12, 2-(7-Chloro-3-(4-fluorophenyl)-5-methyl-4-oxo-4,5-dihydro-3H-pyridazino[4,5-b]indol-1-yl)-N,N-dimethylacetamide] the Ki (TSPO [2]; read-out: Kidney Ki, low-affinity binding (mixed affinity binding)) was 0.969 nM and the Ki (TSPO [4]; [10]) was 3.02 ± 1.01 nM.

In the case of `CN(C)C(=O)Cc1nn(-c2ccccn2)c(=O)c2c1c1ccc(Cl)cc1n2C` [Compound 13, 2-(7-Chloro-5-methyl-4-oxo-3-(pyridin-2-yl)-4,5-dihydro-3H-pyridazino[4,5-b]indol-1-yl)-N,N-dimethylacetamide], the Ki (TSPO [3]) is reported as 4.94 nM, the “Heart Ki” value (TSPO [3]; [11]) is reported as “did not appreciably bind TSPO” and the “Kidney Ki” value (TSPO [2]; Ki ± S.E.M. versus [3H]PK11195, rat kidney lysate, high-affinity value where binding is mixed, triplicate) is reported as “did not appreciably bind TSPO”. For the same molecule, the Ki (TSPO [2]; read-out: Kidney Ki) was 6.8 nM, the “C6 Glioma Ki” value (TSPO [4]; Ki ± S.E.M. versus [3H]PK11195, C6 lysate, high-affinity value where binding is mixed, triplicate) was “did not appreciably bind TSPO” and the Ki (TSPO [4]; [12]) was 2.41 nM.

In the case of `CN(C)C(=O)Cc1nn(-c2cccc(F)n2)c(=O)c2c1c1ccc(Cl)cc1n2C` [Compound 14, 2-(7-Chloro-3-(6-fluoropyridin-2-yl)-5-methyl-4-oxo-4,5-dihydro-3H-pyridazino[4,5-b]indol-1-yl)-N,N-dimethylacetamide], the Ki (TSPO [3]; [11]) is reported as 0.00321 ± 0.0004 nM, the Ki (TSPO [2]; Ki ± S.E.M. versus [3H]PK11195, rat kidney lysate, high-affinity value where binding is mixed, triplicate, read-out: Kidney Ki) is reported as 0.00221 ± 0.0004 nM and the Ki [5] is reported as over 10000 nM. The Ki (TSPO [4]; [12]) was 0.00119 nM, the “increase in potency over 2b” value (TSPO [4]; TSPO, in our lab) was 1000 fold and the Ki (TSPO [4]; [10]) was 1.77 nM.

With `CN(C)C(=O)Cc1nn(-c2cccc(Cl)n2)c(=O)c2c1c1ccc(Cl)cc1n2C` [Compound 15, 2-(7-Chloro-3-(6-chloropyridin-2-yl)-5-methyl-4-oxo-4,5-dihydro-3H-pyridazino[4,5-b]indol-1-yl)-N,N-dimethylacetamide] the Ki (TSPO [4]; [12]) was 0.00234 ± 0.0004 nM.

For `CN(C)C(=O)Cc1nn(-c2cccc(Br)n2)c(=O)c2c1c1ccc(Cl)cc1n2C` [Compound 16, 2-(7-Chloro-3-(6-bromopyridin-2-yl)-5-methyl-4-oxo-4,5-dihydro-3H-pyridazino[4,5-b]indol-1-yl)-N,N-dimethylacetamide], the Ki (TSPO [4]; [12]) was 0.00148 ± 0.0002 nM.

`CCc1cc(CC)n2nc(-c3ccc(OCCNC(=S)Nc4ccc5c(c4)C(=O)OC54c5ccc(O)cc5Oc5cc(O)ccc54)cc3)c(CC(=O)N(CC)CC)c2n1` [Compound 23] gave a Ki (TSPO [6]) of 13.8 ± 4.99 nM.

In the case of `CCc1cc(CC)n2nc(-c3ccc(OCCCNC(=S)Nc4ccc5c(c4)C(=O)OC54c5ccc(O)cc5Oc5cc(O)ccc54)cc3)c(CC(=O)N(CC)CC)c2n1` [Compound 24], the Ki (TSPO [6]) is reported as 111 ± 25.6 nM.

In the case of `CCc1cc(CC)n2nc(-c3ccc(OCCCCCNC(=S)Nc4ccc5c(c4)C(=O)OC54c5ccc(O)cc5Oc5cc(O)ccc54)cc3)c(CC(=O)N(CC)CC)c2n1` [Compound 26], the Ki (TSPO [6]) is reported as 185 ± 15.4 nM.

Molecule `CCc1cc(CC)n2nc(-c3ccc(OCCCCCCNC(=S)Nc4ccc5c(c4)C(=O)OC54c5ccc(O)cc5Oc5cc(O)ccc54)cc3)c(CC(=O)N(CC)CC)c2n1` [Compound 27] has a Ki (TSPO [6]) of 11.7 ± 4.86 nM.

Molecule `CCc1cc(CC)n2nc(-c3ccc(OCCCCCCCNC(=S)Nc4ccc5c(c4)C(=O)OC54c5ccc(O)cc5Oc5cc(O)ccc54)cc3)c(CC(=O)N(CC)CC)c2n1` [Compound 28] has a Ki (TSPO [6]) of 16.3 ± 5.01 nM.

For `CCc1cc(CC)n2nc(-c3ccc(OCCCCCCCCNC(=S)Nc4ccc5c(c4)C(=O)OC54c5ccc(O)cc5Oc5cc(O)ccc54)cc3)c(CC(=O)N(CC)CC)c2n1` [Compound 29], the Ki (TSPO [6]) was 0.31 ± 0.02 nM.

In the case of `COc1ccc(OC)c(CN(C(C)=O)c2cc(F)ccc2Oc2ccccc2)c1` [DAA1106], the “binding affinity for PBR” value (PBR) is listed as “fentomolar”.

For `CCc1cc(CC)n2nc(-c3ccc(OCC[18F])cc3)c(CC(=O)N(CC)CC)c2n1` [[^18F]-2b, 2-(5,7-diethyl-2-(4-(2-[^18F]fluoroethoxy)phenyl)pyrazolo[1,5-a]pyrimidin-3-yl)-N,N-diethylacetamide], the “enhancement in affinity compared to [18F]-2a” value (TSPO [1]; TSPO) is listed as 36 fold.

With `CN(C)C(=O)Cc1nn(-c2cccc([18F])n2)c(=O)c2c1c1ccc(Cl)cc1n2C` [[^18F]-14, 7-chloro-N,N,5-trimethyl-4-oxo-3(6-[^18F]fluoropyridin-2-yl)-3,5-dihydro-4H-pyridazino[4,5-b]indole-1-acetamide] the “tracer accumulation in normal brain and tumor” value (C6 glioma; preclinical model of glioma (C6), PET) was “modest accumulation in normal brain, yet robust accumulation in tumor tissue”, the “plasma clearance of tracer” value (C6 glioma; time-activity curve, 90-min dynamic acquisition) was “quickly cleared the plasma” and the “% parent at 60 min” value [7] was over 90%. The “tumor binding after injection of 14, % of the peak tumor uptake” value (TSPO [8]; bolus IV nonradioactive 14 (10 mg/kg) about 30 min after tracer) was “approximately 40%” and the “displaceability by non-radioactive 14” value (TSPO [8]; non-radioactive 14 given halfway through the PET scan) was “fully displaceable”.

In the case of `CN1C(=O)CN=C(c2ccccc2F)c2cc([N+](=O)[O-])ccc21` [flunitrazepam], the Kd [9] is listed as 1.1 nM.
